Laboratory results from ChEMBL document CHEMBL1201862, “PubChem BioAssay data set” (2004).
Values belong to the compound of their own block, whether it stands above or below them. Activity calls are given as the source filed them.

How the values were obtained:
[1] = molecular target: DNA dC->dU-editing enzyme APOBEC-3A (Homo sapiens, UniProt P31941); assay: A3A deaminase inhibition for selectivity – biochemical, dose response (AID 504722); assay type: functional
[2] = molecular target: DNA dC->dU-editing enzyme APOBEC-3G (Homo sapiens, UniProt Q9HC16); assay: Dose Response confirmation of small molecule APOBEC3G DNA Deaminase Inhibitors via a fluorescence-based single-stranded DNA deaminase assay. [Related pubchem assays (depositor defined):AID493012, AID493028]; assay type: functional
[3] = molecular target: T1, Rac GTPase-activating protein 1 (Homo sapiens, UniProt Q9H0H5); assay: blockers of MgcRacGAP-driven Rac1 GTP hydrolysis – biochemical, ADP Hunter fluorescence, primary and confirmatory, confirmation (AID 624330); assay type: functional
T1 sequence (Q9H0H5 whole entry): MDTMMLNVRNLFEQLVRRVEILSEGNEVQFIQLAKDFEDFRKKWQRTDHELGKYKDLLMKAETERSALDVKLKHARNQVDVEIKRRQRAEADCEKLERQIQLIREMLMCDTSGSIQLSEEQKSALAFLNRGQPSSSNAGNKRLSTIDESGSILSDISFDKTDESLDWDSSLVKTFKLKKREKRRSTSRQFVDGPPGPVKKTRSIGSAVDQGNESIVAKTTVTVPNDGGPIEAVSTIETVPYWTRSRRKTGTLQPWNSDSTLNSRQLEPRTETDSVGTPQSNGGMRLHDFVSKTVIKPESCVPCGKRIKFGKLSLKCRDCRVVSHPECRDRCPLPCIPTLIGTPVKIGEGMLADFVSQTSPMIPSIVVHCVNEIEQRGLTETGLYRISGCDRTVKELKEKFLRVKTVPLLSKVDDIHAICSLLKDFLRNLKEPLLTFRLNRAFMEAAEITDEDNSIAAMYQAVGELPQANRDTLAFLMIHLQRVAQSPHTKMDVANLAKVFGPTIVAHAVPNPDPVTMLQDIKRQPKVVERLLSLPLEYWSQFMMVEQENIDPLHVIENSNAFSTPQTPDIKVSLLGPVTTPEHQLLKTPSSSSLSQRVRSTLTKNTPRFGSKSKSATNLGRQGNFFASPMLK

[4] = molecular target: G-protein coupled receptor 55 (Homo sapiens, UniProt Q9Y2T6); assay: inhibition of LPI-stimulated GPR55 beta-arrestin translocation – imaging, U2OS, beta-arrestin-GFP, LPI agonist, primary screen (AID 2013); assay type: functional;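 also: antagonist potency measured as reduced agonist-driven arrestin aggregation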
[5] = molecular target: T2, High affinity choline transporter 1 (Homo sapiens, UniProt Q9GZV3); assay: human choline transporter blockers, potency – cell-based, 5-point CRC, membrane potential dye, dose response (AID 504840); assay type: functional
T2 sequence (Q9GZV3 whole entry): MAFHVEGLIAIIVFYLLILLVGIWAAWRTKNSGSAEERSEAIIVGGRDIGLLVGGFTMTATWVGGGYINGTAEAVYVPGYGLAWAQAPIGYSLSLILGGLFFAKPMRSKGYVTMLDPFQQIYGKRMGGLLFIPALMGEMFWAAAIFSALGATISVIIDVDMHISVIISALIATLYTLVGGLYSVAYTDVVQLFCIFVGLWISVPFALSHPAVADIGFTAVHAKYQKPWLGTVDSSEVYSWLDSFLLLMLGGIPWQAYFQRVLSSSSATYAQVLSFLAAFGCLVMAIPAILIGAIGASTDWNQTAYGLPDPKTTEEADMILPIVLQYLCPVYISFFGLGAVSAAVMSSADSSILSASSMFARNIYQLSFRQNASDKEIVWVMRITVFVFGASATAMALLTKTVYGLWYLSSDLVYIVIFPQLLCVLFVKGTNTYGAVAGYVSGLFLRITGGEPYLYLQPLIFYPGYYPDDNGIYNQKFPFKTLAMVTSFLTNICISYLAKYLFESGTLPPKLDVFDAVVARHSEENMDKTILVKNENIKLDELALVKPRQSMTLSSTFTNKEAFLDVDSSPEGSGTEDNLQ

[6] = molecular target: T3, Hexokinase (Trypanosoma brucei, UniProt Q38C41); assay: Confirmation assay for inhibitors of Trypanosoma brucei hexokinase 1-Analogue-first series. [Related pubchem assays (depositor defined):AID1430, AID1632, AID2516, AID2560, AID2579, AID2600, AID449725, AID492951]; assay type: functional
T3 sequence (Q38C41 whole entry): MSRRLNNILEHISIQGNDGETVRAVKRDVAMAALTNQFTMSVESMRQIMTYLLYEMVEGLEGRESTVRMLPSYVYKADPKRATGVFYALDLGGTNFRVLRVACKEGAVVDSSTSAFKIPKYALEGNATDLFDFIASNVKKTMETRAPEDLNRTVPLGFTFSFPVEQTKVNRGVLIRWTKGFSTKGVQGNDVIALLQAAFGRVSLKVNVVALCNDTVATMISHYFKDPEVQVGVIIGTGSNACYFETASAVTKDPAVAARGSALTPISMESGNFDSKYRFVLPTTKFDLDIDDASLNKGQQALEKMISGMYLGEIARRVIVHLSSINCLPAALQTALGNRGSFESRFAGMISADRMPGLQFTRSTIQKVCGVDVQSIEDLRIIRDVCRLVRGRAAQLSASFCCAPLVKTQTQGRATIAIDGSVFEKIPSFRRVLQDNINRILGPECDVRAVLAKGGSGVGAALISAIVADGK

[7] = molecular target: Troponin, cardiac muscle (Homo sapiens, UniProt P19429+P45379+P63316); assay: Fluorescence-based biochemical high throughput dose response assay for activators of the calcium sensitivity of cardiac Regulated Thin Filaments (RTF). [Related pubchem assays (depositor defined):AID493008, AID493018, AID504382, AID504383]; assay type: protein-complex assay
[8] = molecular target: T4, E3 ubiquitin-protein ligase XIAP (Homo sapiens, UniProt P98170); assay: small molecules displacing peptide from XIAP – biochemical, IAP family, fluorescence polarization (AID 1018); assay type: functional
[9] = molecular target: T4, E3 ubiquitin-protein ligase XIAP; assay: Counter Screen using XIAP-Bir3 for Chemical Antagonists of Bir1/2 domains of IAP-family anti-apoptotic proteins. [Related pubchem assays (depositor defined):AID1018, AID1449, AID1514, AID1638, AID1749, AID1750, AID488957, AID488963]
[10] = molecular target: T5, RNA-binding protein pos-1 (Caenorhabditis elegans, UniProt G5EF15); assay: disruptors of C. elegans POS-1 RNA interaction – biochemical, fluorescence polarization, dose response (AID 1964);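 also: purified POS-1 fused to maltose binding protein made in E. coli; potency of compounds blocking POS-1 binding to fluorescent RNA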
T5 sequence (G5EF15 whole entry): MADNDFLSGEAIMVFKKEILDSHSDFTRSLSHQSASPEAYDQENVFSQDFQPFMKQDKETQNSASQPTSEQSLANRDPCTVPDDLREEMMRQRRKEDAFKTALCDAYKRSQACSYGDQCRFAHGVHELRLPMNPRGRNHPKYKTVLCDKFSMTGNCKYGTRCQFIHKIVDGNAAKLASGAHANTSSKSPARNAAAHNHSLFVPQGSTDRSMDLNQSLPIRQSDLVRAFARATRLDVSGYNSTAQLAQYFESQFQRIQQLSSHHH

[11] = molecular target: T6, SUMO-activating enzyme (Homo sapiens, UniProt Q9UBT2); assay: blockers of SAE1/SAE2–UBC9 SUMO transfer – biochemical, HTRF, uHTS, primary screen (AID 2006); assay type: protein-complex assay
[12] = molecular target: Eukaryotic translation initiation factor 4E (Mus musculus, UniProt P63073); assay: blockers of eIF4G binding by eIF4E – biochemical, TR-FRET, dose response (AID 855); assay type: functional;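 also: potency for disrupting eIF4E binding to eIF4GI seen as loss of FRET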
[13] = molecular target: T7, Leucine aminopeptidase (Plasmodium falciparum 3D7, UniProt Q8IL11); assay: P. falciparum M17LAP inhibitors, primary screen, biochemical, fluorogenic H-Leu-NHMec substrate, 1536-well (AID 1619); assay type: functional
T7 sequence (Q8IL11 whole entry): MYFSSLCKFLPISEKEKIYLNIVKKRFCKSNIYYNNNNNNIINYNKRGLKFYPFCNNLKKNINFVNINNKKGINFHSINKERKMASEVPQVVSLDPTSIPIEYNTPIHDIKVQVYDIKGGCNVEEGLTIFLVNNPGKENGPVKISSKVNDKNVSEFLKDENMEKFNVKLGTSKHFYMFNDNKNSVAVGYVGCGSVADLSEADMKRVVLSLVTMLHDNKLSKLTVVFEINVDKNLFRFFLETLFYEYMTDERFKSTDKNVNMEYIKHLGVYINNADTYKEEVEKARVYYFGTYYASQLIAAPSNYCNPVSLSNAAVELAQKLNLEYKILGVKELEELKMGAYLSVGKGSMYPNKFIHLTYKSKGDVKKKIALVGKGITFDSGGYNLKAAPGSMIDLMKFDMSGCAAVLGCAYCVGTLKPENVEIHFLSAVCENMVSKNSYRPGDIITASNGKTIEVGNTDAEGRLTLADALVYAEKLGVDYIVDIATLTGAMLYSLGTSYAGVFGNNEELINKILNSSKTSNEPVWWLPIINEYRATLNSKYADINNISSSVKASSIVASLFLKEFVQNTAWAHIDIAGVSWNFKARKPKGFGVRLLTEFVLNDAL

[14] = molecular target: T8, Zinc finger protein mex-5 (Caenorhabditis elegans, UniProt Q9XUB2); assay: potency of MEX-5 RNA-binding blockers – biochemical, C. elegans, fluorescence polarization, dose response (AID 1960)
T8 sequence (Q9XUB2 whole entry): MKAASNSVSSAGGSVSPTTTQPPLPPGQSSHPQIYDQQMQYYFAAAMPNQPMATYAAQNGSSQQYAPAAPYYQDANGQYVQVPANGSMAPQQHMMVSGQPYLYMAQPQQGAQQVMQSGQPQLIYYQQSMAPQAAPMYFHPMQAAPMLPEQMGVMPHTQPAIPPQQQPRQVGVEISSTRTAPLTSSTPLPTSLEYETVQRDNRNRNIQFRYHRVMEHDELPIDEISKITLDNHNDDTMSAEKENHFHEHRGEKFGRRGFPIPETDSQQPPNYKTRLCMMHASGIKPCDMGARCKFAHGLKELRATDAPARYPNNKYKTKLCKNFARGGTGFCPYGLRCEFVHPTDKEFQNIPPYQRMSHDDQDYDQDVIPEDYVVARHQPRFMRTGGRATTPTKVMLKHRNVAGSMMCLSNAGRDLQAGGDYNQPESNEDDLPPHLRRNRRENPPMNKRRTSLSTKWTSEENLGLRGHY

[15] = molecular target: T9, Caspase-6 (Homo sapiens, UniProt P55212); assay: inhibition of CASP6 peptide cleavage – biochemical, VEID-R110 fluorescence, cherry-pick, dose response (AID 720632)
T9 sequence (P55212 whole entry): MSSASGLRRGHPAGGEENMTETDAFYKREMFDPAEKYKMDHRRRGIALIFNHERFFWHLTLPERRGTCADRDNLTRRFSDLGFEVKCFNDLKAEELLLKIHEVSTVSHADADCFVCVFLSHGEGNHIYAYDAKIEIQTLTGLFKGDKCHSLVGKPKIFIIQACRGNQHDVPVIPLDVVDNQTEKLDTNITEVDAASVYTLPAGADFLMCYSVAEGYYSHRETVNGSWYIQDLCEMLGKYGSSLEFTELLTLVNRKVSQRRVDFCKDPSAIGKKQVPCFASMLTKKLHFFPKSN

[16] = molecular target: T6, SUMO-activating enzyme; assay: blockers of UBC9-mediated SUMO conjugation – biochemical, AlphaScreen, SUMOylation inhibitor project, confirmation (AID 2018); assay type: functional
[17] = viability loss in HeLa cells – cytotoxicity control for MgcRacGAP inhibitor project, dose response (AID 624300); assay type: functional
[18] = molecular target: Glucose-6-phosphate 1-dehydrogenase (Homo sapiens, UniProt P11413); assay: inhibition of Homo sapiens G6PD, dose series – biochemical, fluorescence, selectivity assay for P. falciparum G6PD inhibitor project, dose response (AID 504792); assay type: functional
Sequence of Glucose-6-phosphate 1-dehydrogenase (P11413 whole entry): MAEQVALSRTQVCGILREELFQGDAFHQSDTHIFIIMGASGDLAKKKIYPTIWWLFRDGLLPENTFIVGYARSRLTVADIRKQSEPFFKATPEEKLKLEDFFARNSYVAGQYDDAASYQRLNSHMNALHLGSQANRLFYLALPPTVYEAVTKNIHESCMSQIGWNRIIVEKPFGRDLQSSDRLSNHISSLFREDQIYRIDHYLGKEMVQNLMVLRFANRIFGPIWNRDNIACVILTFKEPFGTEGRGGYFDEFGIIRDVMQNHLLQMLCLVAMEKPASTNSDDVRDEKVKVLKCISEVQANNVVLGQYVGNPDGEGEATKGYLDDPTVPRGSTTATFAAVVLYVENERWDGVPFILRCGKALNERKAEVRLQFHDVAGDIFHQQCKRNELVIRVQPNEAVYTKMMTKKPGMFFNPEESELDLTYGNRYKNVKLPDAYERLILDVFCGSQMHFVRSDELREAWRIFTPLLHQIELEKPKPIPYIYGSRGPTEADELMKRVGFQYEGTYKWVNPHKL

Sequence of G-protein coupled receptor 55 (Q9Y2T6 whole entry): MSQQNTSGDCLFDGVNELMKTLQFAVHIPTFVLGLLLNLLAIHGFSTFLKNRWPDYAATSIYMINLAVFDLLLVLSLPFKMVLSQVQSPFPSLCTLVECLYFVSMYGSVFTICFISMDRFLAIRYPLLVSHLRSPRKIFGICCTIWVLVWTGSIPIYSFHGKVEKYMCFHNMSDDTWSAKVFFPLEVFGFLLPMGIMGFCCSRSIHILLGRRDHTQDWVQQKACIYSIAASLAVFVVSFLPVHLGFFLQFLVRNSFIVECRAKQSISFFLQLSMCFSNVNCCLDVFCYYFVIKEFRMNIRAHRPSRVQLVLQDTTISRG
Sequence of DNA dC->dU-editing enzyme APOBEC-3A (P31941 whole entry): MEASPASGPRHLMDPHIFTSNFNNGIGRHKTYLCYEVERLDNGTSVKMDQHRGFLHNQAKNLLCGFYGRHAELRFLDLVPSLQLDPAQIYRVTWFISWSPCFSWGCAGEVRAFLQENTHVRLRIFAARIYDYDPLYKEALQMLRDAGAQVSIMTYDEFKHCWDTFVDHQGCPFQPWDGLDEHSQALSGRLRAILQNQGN
Sequence of DNA dC->dU-editing enzyme APOBEC-3G (Q9HC16 whole entry): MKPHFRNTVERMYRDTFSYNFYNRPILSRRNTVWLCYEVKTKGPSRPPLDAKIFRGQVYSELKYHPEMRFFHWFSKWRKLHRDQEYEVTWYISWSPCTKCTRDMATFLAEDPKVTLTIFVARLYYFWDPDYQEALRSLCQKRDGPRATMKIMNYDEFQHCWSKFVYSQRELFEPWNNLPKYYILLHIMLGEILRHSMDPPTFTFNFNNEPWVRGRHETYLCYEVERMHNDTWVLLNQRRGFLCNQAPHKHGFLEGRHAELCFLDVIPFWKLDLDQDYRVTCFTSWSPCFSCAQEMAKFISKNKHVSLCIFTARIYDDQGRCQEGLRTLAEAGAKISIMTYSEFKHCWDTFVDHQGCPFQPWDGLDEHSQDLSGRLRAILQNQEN
T4 sequence (P98170 whole entry): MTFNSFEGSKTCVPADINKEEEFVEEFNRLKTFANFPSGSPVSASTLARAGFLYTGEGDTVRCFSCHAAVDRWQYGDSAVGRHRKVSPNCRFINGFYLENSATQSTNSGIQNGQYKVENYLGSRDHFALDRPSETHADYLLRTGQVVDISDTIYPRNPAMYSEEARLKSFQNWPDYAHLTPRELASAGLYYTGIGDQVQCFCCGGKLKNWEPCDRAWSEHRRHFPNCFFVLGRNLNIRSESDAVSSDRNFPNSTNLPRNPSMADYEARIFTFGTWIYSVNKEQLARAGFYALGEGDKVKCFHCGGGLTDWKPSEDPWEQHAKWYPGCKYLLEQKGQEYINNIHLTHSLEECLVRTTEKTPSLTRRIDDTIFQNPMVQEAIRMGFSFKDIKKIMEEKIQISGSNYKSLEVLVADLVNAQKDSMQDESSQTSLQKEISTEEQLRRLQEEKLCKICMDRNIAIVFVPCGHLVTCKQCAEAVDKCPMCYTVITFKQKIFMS
T6 sequence (Q9UBE0 whole entry): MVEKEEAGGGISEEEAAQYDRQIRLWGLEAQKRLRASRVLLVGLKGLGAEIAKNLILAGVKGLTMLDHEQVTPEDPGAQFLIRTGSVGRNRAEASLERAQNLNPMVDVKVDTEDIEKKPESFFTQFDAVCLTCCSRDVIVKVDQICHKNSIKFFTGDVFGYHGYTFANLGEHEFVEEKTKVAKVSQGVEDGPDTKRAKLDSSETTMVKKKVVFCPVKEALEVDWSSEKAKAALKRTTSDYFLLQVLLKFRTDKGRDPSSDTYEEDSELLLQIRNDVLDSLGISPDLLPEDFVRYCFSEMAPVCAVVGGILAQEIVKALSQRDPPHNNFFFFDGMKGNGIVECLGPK
T6 sequence (Q9UBT2 whole entry): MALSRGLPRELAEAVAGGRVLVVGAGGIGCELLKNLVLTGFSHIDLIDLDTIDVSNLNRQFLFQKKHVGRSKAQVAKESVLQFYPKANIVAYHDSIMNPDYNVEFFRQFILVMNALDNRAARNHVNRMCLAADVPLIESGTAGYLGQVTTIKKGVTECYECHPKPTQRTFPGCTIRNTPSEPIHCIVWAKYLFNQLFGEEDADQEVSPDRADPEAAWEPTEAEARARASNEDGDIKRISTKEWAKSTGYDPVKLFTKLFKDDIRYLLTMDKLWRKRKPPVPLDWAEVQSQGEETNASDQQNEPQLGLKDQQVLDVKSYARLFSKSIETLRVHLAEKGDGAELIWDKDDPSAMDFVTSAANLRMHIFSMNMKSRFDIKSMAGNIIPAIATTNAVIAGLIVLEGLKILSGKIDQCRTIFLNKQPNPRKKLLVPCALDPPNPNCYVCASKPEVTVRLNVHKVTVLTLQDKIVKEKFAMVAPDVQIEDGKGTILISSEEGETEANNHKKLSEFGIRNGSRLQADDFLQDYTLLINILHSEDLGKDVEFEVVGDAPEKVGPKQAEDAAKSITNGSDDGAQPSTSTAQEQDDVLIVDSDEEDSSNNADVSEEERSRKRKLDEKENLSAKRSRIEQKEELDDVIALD
Sequence of Eukaryotic translation initiation factor 4E (P63073 whole entry): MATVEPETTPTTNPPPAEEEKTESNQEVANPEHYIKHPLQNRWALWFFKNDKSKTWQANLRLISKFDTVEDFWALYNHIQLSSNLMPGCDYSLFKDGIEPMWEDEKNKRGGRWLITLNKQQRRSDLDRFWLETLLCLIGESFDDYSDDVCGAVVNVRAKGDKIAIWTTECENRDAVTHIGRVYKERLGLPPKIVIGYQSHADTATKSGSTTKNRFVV

Structure (SMILES): COCc1cc(C)c(C#N)c(S)n1
IC50 [1]: > 100 µM (inactive)
IC50 [2]: 14.1 µM (active)

Structure (SMILES): Sc1nnc(-c2ccncc2)n1/N=C/c1ccccc1
IC50 [1]: > 100 µM (inactive)
IC50 [2]: 2.52 µM (active)
IC50 [3]: 51.9 µM (active)

Structure (SMILES): CCc1nnc(NS(=O)(=O)c2ccc(NC(=O)/C=C/c3ccccc3Cl)cc2)s1
IC50 [5]: 13.8 µM (active)
IC50 [4]: 1.99 µM (active)

Structure (SMILES): O=C(Nc1cc(Cl)ccc1C(=O)O)c1ccc(-c2ccccc2)cc1
IC50 [6]: 22.3 µM (active)

Structure (SMILES): Cc1cc(N2CCCC2)ccc1C=C(C#N)C#N
EC50 [7]: 4.16 µM (active)

Structure (SMILES): CC(/C=N/n1c(S)nnc1-c1cccnc1)=C\c1ccco1
IC50 [1]: > 100 µM (inactive)
IC50 [2]: 1.93 µM (active)

Structure (SMILES): O=c1c(O)c(-c2ccc(O)c(O)c2)oc2cc(O)cc(O)c12 [QUERCETIN]
IC50 [6]: 22.4 µM (active)

Structure (SMILES): O=C(Cn1sc2ccccc2c1=O)Nc1ccc(I)cc1
IC50 [6]: 14.8 µM (active)

Structure (SMILES): Cc1ccc(-n2sc3cc(F)ccc3c2=O)c(C)c1
CC50 [17]: 72.5 µM (active)
IC50 [18]: 9.17 µM (active)
IC50 [6]: 4.77 µM (active)
IC50 [3]: 35.8 µM (active)

Now from value to compound:

IC50 [4]: 1.7 µM (active)
Structure (SMILES): NNC(=O)COc1ccc(-c2[nH]nc(C(F)(F)F)c2-c2ccc(Br)cc2)c(O)c1

IC50 [4]: 4.89 µM (active)
Structure (SMILES): O=C(Nc1ccccc1N1CCOCC1)c1cc(-c2ccncc2)nc2ccccc12

EC50 [7]: > 71.5 µM (inactive)
Structure (SMILES): Cc1cc(C)c2nc(NC(=O)C3CCCO3)sc2c1 (stereo unspecified)

IC50 [8]: > 100 µM (not active)
IC50 [9]: > 100 µM (inactive)
Structure (SMILES): COc1nc(NS(=O)(=O)c2ccc(C)cc2)nc(C)c1Cl

EC50 [10]: > 300 µM (not active)
IC50 [11]: 29 µM (active)
IC50 [12]: 50 µM (inactive)
IC50 [13]: 12.7 µM (active)
EC50 [14]: 111 µM (active)
AC50 [15]: 5.03 µM (active)
IC50 [16]: 6.16 µM (active)
Structure (SMILES): Cc1cc(/C=N/Nc2ccc([N+](=O)[O-])cn2)c(C)n1-c1ccc(C(=O)O)cc1

IC50 [8]: > 100 µM (not active)
IC50 [9]: > 100 µM (inactive)
Structure (SMILES): O=C(O)CCN(Cc1ccccc1)S(=O)(=O)c1ccccc1Cl

EC50 [7]: > 71.5 µM (inactive)
Structure (SMILES): O=C1c2ccsc2SCCN1Cc1ccc(F)cc1

IC50 [8]: > 100 µM (not active)
IC50 [9]: > 100 µM (inactive)
Structure (SMILES): O=C(O)CCN1CCc2ccccc21

IC50 [8]: > 100 µM (not active)
IC50 [9]: > 100 µM (inactive)
Structure (SMILES): Cc1cccc(OCc2nc(C#N)c(NCCN(C)C)o2)c1
